Reference: ChEMBL document CHEMBL1811789, “Synthesis and biological evaluation of (±)-benzhydrol derivatives as potent non-nucleoside HIV-1 reverse transcriptase inhibitors” (Bioorg Med Chem, 2011)

How the values were obtained:
[1] = system: Human immunodeficiency virus 1; experiment: Antiviral activity against wild type HIV1 3B infected in human C8166 cells assessed as inhibition of viral-induced cytopathogenicity after 3 days by syncytium formation assay; assay type: functional, organism-based; conditions: Human immunodeficiency virus 1, 3B, C8166, 72 h
[2] = Cytotoxicity against human C8166 cells by MTT assay; assay type: cell-based
[3] = Selectivity index, ratio of CC50 for human C8166 cells to EC50 for wild type HIV1 3B; assay type: toxicity, cell-based; conditions: read-out: Ratio CC50/EC50
[4] = system: Human immunodeficiency virus 1; experiment: Antiviral activity against […] HIV1 A17 harboring reverse transcriptase K103N and Y181C mutant infected in human C8166 cells assessed as inhibition of viral-induced cytopathogenicity after 3 days by syncytium formation assay; assay type: functional, organism-based; conditions: Human immunodeficiency virus 1, A17, C8166, 72 h

Row | Compound | EC50 [1] | CC50 [2] | selectivity ratio [3] | EC50 [4]
1 | Cc1cc(S(N)(=O)=O)ccc1NC(=O)COc1ccc(Cl)cc1C(O)c1cccc(Cl)c1 (racemic) | 0.72 µM | 33.2 µM | 46.4 | 13 µM
2 | Cc1cc(S(N)(=O)=O)ccc1NC(=O)COc1ccc(Cl)cc1C(O)c1cccc([N+](=O)[O-])c1 (racemic) | 0.12 µM | 36.9 µM | 313 | 4.34 µM
3 | Cc1cc(C)cc(C(O)c2cc(Cl)ccc2OCC(=O)Nc2ccc(S(N)(=O)=O)cc2C)c1 (racemic) | 0.18 µM | 29.4 µM | 166 | 2.08 µM
4 | Cc1cc(S(N)(=O)=O)ccc1NC(=O)COc1ccc(Cl)cc1C(O)c1cccc2ccccc12 (racemic) | 0.39 µM | 31.1 µM | 80.1 | 8.47 µM
5 | Cc1cc(S(N)(=O)=O)ccc1NC(=O)COc1ccc(Cl)cc1C(O)c1ccc(Cl)c(Cl)c1 (racemic) | 2.15 µM | 24 µM | 11.2 | 31.6 µM
6 | Cc1cn([C@H]2C[C@H](N=[N+]=[N-])[C@@H](CO)O2)c(=O)[nH]c1=O [ZIDOVUDINE] |  |  | 422000 | 0.023 µM
7 | Cc1cc(S(N)(=O)=O)ccc1NC(=O)COc1ccc(Cl)cc1C(O)c1ccccc1 (racemic) | 1.12 µM | 33.4 µM | 29.9 | 16.5 µM
8 | Cc1ccc(C)c(C(O)c2cc(Cl)ccc2OCC(=O)Nc2ccc(S(N)(=O)=O)cc2C)c1 (racemic) | 0.81 µM | 35.5 µM | 43.7 | 14.3 µM
9 | Cc1cc(S(N)(=O)=O)ccc1NC(=O)COc1ccc(Cl)cc1C(O)c1cc(Cl)cc(Cl)c1 (racemic) | 1.06 µM | 13.1 µM | 12.4 | 9.45 µM
10 | Cc1cc(S(N)(=O)=O)ccc1NC(=O)COc1ccc(Cl)cc1C(O)c1cccc(F)c1 (racemic) | 0.48 µM | 37.6 µM | 78.5 | 6.61 µM
11 | Cc1cccc(C(O)c2cc(Cl)ccc2OCC(=O)Nc2ccc(S(N)(=O)=O)cc2C)c1 (racemic) | 0.48 µM | 33.1 µM | 69 | 9.7 µM
12 | Cc1cc(S(N)(=O)=O)ccc1NC(=O)COc1ccc(Cl)cc1C(O)c1ccc2ccccc2c1 (racemic) | 1.09 µM | 15.7 µM | 14.3 | 10.7 µM
13 | Cc1ccc(C(O)c2cc(Cl)ccc2OCC(=O)Nc2ccc(S(N)(=O)=O)cc2C)c(C)c1 (racemic) | 4.27 µM | 26.4 µM | 6.18 | 40.4 µM
14 | Cc1cc(S(N)(=O)=O)ccc1NC(=O)COc1ccc(Cl)cc1C(O)c1ccc(Cl)cc1Cl (racemic) | 2.92 µM | 39.9 µM | 13.7 | 33.6 µM
15 | Cc1cc(S(N)(=O)=O)ccc1NC(=O)COc1ccc(Cl)cc1C(O)c1cccc(C)c1C (racemic) | 9.02 µM | 218 µM | 24.1 | 216 µM
16 | Cc1cc(S(N)(=O)=O)ccc1NC(=O)COc1ccc(Cl)cc1C(O)c1ccccc1Cl (racemic) | 1.3 µM | 32 µM | 24.6 | 20.4 µM
17 | Cc1cc(S(N)(=O)=O)ccc1NC(=O)COc1ccc(Cl)cc1C(O)c1ccccc1C (racemic) | 1.21 µM | 33.9 µM | 28 | 20.8 µM
18 | Cc1cc(S(N)(=O)=O)ccc1NC(=O)COc1ccc(Cl)cc1C(O)c1cc(Cl)cc(C#N)c1 (racemic) | 0.39 µM | 31.6 µM | 80.8 | 6.84 µM
19 | Cc1cc(S(N)(=O)=O)ccc1NC(=O)COc1ccc(Cl)cc1C(O)c1cc(Cl)ccc1Cl (racemic) | 1.06 µM | 36.2 µM | 34.2 | 9.58 µM
20 | Cc1ccc(C(O)c2cc(Cl)ccc2OCC(=O)Nc2ccc(S(N)(=O)=O)cc2C)cc1 (racemic) | 0.65 µM | 38.7 µM | 59.3 | 13.4 µM
21 | Cc1cc(S(N)(=O)=O)ccc1NC(=O)COc1ccc(Cl)cc1C(O)c1cc(Cl)cc(Br)c1 (racemic) | 0.54 µM | 22.9 µM | 42.4 | 7.79 µM
22 | Cc1cc(S(N)(=O)=O)ccc1NC(=O)COc1ccc(Cl)cc1C(=O)c1cc(Cl)cc(C#N)c1 | 0.00069 µM | > 387 µM | > 563000 | 0.0014 µM
